# Experimental data as given in PubChem BioAssay AID2060508 (Molecular Pharmacology Branch, DTP, NCI, 2025).
# Values joined by “and” are separate entries in the source; they are usually repeats but may differ in a detail not shown here. Identical values can stand only once.
# Tested on: 454973-116-R2-J3-PDC spheroids, viability, % test/control
# Test: Anticancer human tumor 454973-116-R2-J3-PDC patient-derived pancreatic carcinoma cell line growth inhibition [GQUAD]
# Conditions: spheroids with HUVEC and MSC; for viability, T/C: stronger effect = lower value
# Source text: DNA G-quadruplex Stabilizer Agents in Combinations in Complex Spheroids
# A high-throughput screen of multi-cell type tumor spheroids was designed to identify active combinations of DNA G-quadruplex stabilizer agents and targeted small molecules. Complex spheroids include a stromal component modeled by human endothelial cells (HUVEC) and fibroblasts modeled by human mesenchymal stem cells (MSCs). The concentration ranges selected for each drug and investigational agent were based upon clinically achievable concentrations if the clinical Cmax of the agent was known.
# Compounds. The drugs and investigational agents: pidnarulex (CX-5461; NSC782164), APTO-253 (NSC789042), BRACO-19 (NSC847499), peposertib (NSC802822), ceralasertib (NSC780249), elimusertib (NSC800525), camonsertib (NSC841442), AZD-1390 (NSC803789), olaparib (NSC753686), talazoparib (NSC767125), ART-558 (NSC835418), sotorasib (NSC818433), MRTX-1133 (NSC836407), SN-38 (NSC673596), topotecan (NSC609699), etoposide (NSC141540), doxorubicin (NSC123127), gemcitabine (NSC613327), 5-fluorouracil (NSC19893), paclitaxel (NSC125973), vemurafenib (NSC761431), panobinostat (NSC761190), R-306465 (JNJ-16241199; NSC773264), adavosertib (NSC754352), TP-3654 (NSC805149), carboplatin (NSC241240), KSQ-4279 (NSC840948), and staurosporine (NSC755774) were obtained from the National Cancer Institute (NCI) Developmental Therapeutics Program Chemical Repository (34). The FDA-approved anticancer drug set is available from the NCI Developmental Therapeutics Program. […] The stock solutions were prepared in dimethyl sulfoxide (DMSO, Sigma-Aldrich, St. Louis, MO, cat. D2650) at 800-fold the tested concentration and stored at -70 degrees C prior to their use. All drugs and investigational agents were tested over a range starting from a high concentration at or near the clinical Cmax and decreasing in half-log increments. If the clinical Cmax for an agent had not been determined, the highest concentration tested was 10 microM.
# 2.3 Cell Culture. All cells were maintained in an incubator at 37 degrees C and 5% CO2 with 95% humidity. The PDC lines were cultured according to standard operating procedures established by the NCI PDMR. All PDCs were thawed and cultured in Matrigel-coated flasks prepared with a working solution of 1X Ham's F-12 nutrient mix, without supplementation (Invitrogen, cat. 11765054), 100 U/mL penicillin-streptomycin (Invitrogen, cat. 15140122), and 2.5% Matrigel (Corning Inc., cat. 354248) for the first three passages. The 857933-349-R-J2-PDC line was cultured in 6C/Colon 1B media, which includes advanced DMEM/F-12 (Thermo Fisher Scientific, cat. 12634028), 10 mM HEPES (Thermo Fisher Scientific, cat. 15630080), 1X GlutaMAX supplement (Thermo Fisher Scientific, cat. 35050061), 0.1 mg/mL primocin (InvivoGen, cat. ant-pm-2), 10% defined fetal bovine serum, heat inactivated (HyClone Laboratories Inc., cat. SH30070.03HI), 50% L-WRN conditioned media (ATCC, cat. CRL-3276), 1.25 mM N-Acetyl-L-cysteine (Sigma-Aldrich, cat. A9165), 10 mM nicotinamide (Sigma-Aldrich, cat. N0636), 1X B-27 supplement (Thermo Fisher Scientific, cat. 17504044), 1X N-2 supplement (Thermo Fisher Scientific, cat. 17502048), 10 microM Y-27632 dihydrochloride (Tocris Bioscience, cat. 1254), and 50 ng/mL human EGF recombinant protein (Thermo Fisher Scientific, cat. PHG0311). The 485176-168-R4-J1-PDC line was cultured in Panc media, which includes all 6C/Colon 1B media components plus 100 ng/mL human FGF-10 (Thermo Fisher Scientific, cat. 100-26), 500 nM SB-431542 (Selleckchem, cat. S1067), and gastrin (Tocris, cat. 3006).
# […]
# 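Also: spheroids exposed to compounds for seven days.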
SMILES,"viability, T/C (compound 0.0316 µM)","viability, T/C (compound 0.1 µM)","viability, T/C (compound 0.316 µM)","viability, T/C (compound 1 µM)","viability, T/C (compound 3.16 µM)","viability, T/C (compound 10 µM)",IC50 (curve of compound),"viability, T/C (compound 0.000999 µM)","viability, T/C (compound 0.00316 µM)","viability, T/C (compound 0.00999 µM)","viability, T/C (compound 0.0999 µM)","IC50 (compound alone, run of 04/22/2024) [nM]"
C#Cc1c(F)ccc2cc(O)cc(-c3ncc4c(N5CC6CCC(C5)N6)nc(OCC56CCCN5CC(F)C6)nc4c3F)c12 (stereo unspecified),52.7% and 54.6% and 60.6%,42.3% and 39% and 39.8%,31.2% and 22.9% and 28.2%,27.5% and 20.6% and 21.6%,23.3% and 19.5% and 22%,19% and 15.4% and 15.2%,42.3 nM and 44.4 nM and 56.7 nM,,,,,
C=CC(=O)N1CCN(c2nc(=O)n(-c3c(C)ccnc3C(C)C)c3nc(-c4c(O)cccc4F)c(F)cc23)C(C)C1 (stereo unspecified),105% and 109% and 98.9%,108% and 100% and 98.3%,108% and 105% and 116%,111% and 116% and 110%,111% and 110% and 115%,115% and 108% and 109%,> 10000 nM,,,,,
C=CCn1c(=O)c2cnc(Nc3ccc(N4CCN(C)CC4)cc3)nc2n1-c1cccc(C(C)(C)O)n1,108% (2×) and 104%,104% and 86.2% and 90.6%,54.8% and 68.5% and 59.1%,17.5% and 15.8% and 14.5%,7.41% and 7.71% and 9.27%,9.65% and 8.23% and 9.05%,373 nM and 456 nM and 387 nM,,,,,
CC(=O)O[C@H]1C(=O)[C@@]2(C)[C@H]([C@H](OC(=O)c3ccccc3)[C@]3(O)C[C@H](OC(=O)[C@H](O)[C@@H](NC(=O)c4ccccc4)c4ccccc4)C(C)=C1C3(C)C)[C@]1(OC(C)=O)CO[C@@H]1C[C@@H]2O,16.1% and 19.8% and 21.1%,8.55% and 9.04% and 12.4%,7.38% and 7.58% and 9.89%,7.17% and 7.18% and 9.08%,6.82% and 7.18% and 9.43%,9.29% and 10.2% and 11.2%,< 31.6 nM,,,,,
CC(C)(O)C1CCC(Nc2ccc3ncc(-c4cccc(C(F)(F)F)c4)n3n2)CC1 (stereo unspecified),105% and 109% and 106%,99.6% and 101% and 93.8%,98.4% and 95.2% and 111%,77.4% and 76.5% and 90.4%,30.5% and 26.7% and 22.5%,35% and 28.9% and 29.6%,2030 nM and 1880 nM and 2060 nM,,,,,
CC(C)n1c(=O)n(C)c2cnc3cc(F)c(-c4ccc(OCCCN5CCCCC5)nc4)cc3c21,104% and 111% and 96.6%,103% and 98.6% and 97.8%,97.7% and 102% and 92.9%,101% and 92.8% and 92.4%,91.9% and 89.9% and 91.4%,64% and 74.3% and 68.2%,> 10000 nM,,,,,
CC1COCCN1c1cc(-c2ccnn2C)c2ccnc(-c3ccn[nH]3)c2n1 (stereo unspecified),93.7% and 96.6% and 80.7%,60.6% and 68% and 55.6%,29.6% and 31.4% and 26.2%,26.3% and 24% and 18.6%,26.5% and 25.6% and 19.4%,24.5% and 24% and 22.7%,148 nM and 176 nM and 124 nM,,,,,
CC1COCCN1c1cc(C2(O)CC3CCC(C2)O3)c2cnn(-c3ccn[nH]3)c2n1 (stereo unspecified),84.7% and 87.2% and 97.5%,58.4% and 59.4% and 64.2%,26.5% and 26.1% and 27.2%,18% and 21.5% and 23.2%,17.8% and 23.5% and 22.9%,12% and 10.9% and 14.2%,135 nM and 139 nM and 157 nM,,,,,
CC1COCCN1c1cc(C2(S(C)(=N)=O)CC2)nc(-c2ccnc3[nH]ccc23)n1 (stereo unspecified),104% and 101% (2×),108% (2×) and 109%,106% (2×) and 113%,100% and 96.2% and 104%,67.5% and 72.8% and 72.2%,30% and 37.2% and 31.8%,5410 nM and 6580 nM and 5950 nM,,,,,
CCCS(=O)(=O)Nc1ccc(F)c(C(=O)c2c[nH]c3ncc(-c4ccc(Cl)cc4)cc23)c1F,105% and 121% and 109%,108% and 104% and 96.3%,120% and 112% and 102%,111% and 113% and 112%,115% and 99.8% and 108%,7.3% and 7.67% and 14.8%,6250 nM and 5890 nM and 6400 nM,,,,,
CC[C@@]1(O)C(=O)OCc2c1cc1n(c2=O)Cc2cc3c(CN(C)C)c(O)ccc3nc2-1,63.9% and 62.8% and 59.8%,,22% and 21.9% and 23.2%,,,,45.6 nM and 44.2 nM and 42.7 nM,104% (2×) and 105%,108% and 109% and 101%,97.4% and 95.7% and 98.8%,18.8% and 18.6% and 21.4%,
CCc1c2c(nc3ccc(O)cc13)-c1cc3c(c(=O)n1C2)COC(=O)[C@]3(O)CC,14.2% and 15.5% and 15.7%,,4.31% and 4.99% and 4.01%,,,,1.76 nM and 1.83 nM and 1.51 nM,67.3% and 74.7% and 64.5%,29.2% and 22.9% and 21.4%,22.2% and 25.2% and 19.8%,9.13% and 8.23% and 8.16%,
CN(C)c1ccc(Nc2c3ccc(NC(=O)CCN4CCCC4)cc3nc3cc(NC(=O)CCN4CCCC4)ccc23)cc1,107% [middle of 12 runs],106% [middle of 12 runs],103% [middle of 12 runs],98.5% [middle of 12 runs],94.8% [middle of 12 runs],74% [middle of 12 runs],,,,,,> 10000
